15 molecules from US20040121965A1, “Method of treating resistant tumors” (Wyeth Holdings Corporation, priority 2002, published 2004) can be followed below.

Where two headings read alike, the source gives them in different places. Some results are limits rather than exact numbers.

Test [1] deals with KB-3-1. Kind of test: Cell survival assay (SRB), KB-3-1. The class given is cell-based, human. From the text: Cells lines with previously known mechanisms of resistance. […] Res. 8: 207-218,1996); KB-3-1 (parental derived from an epidermoid carcinoma), KB-8.5, KB-V1 (Akiyama S-I, Fojo A, Hanover J A, Pastan I, Gottesman M M. Isolation and genetic characterization of human KB cell lines resistant to multiple drugs. Somatic Cell Mol. Gen., 11: 117-126,1985; Shen D-W, Cardarelli C, Hwang J, Cornwell M, Richert N, Ishii S, Pastan I, Gottesman MM. […] J. Biol. Chem., 261: 7762-7770, 1986); and HL-60 (parental derived from human leukemia) and HL60/AR (McGrath T., Center M. S. Adriamycin resistance in HL60 cells in the absence of detectable P-glycoprotein. Biochem. Res. Commun., 145:1171-1176,1987); A549 and A549.EpoB40 (He L., Yang C.-P.H., Horwitz S. B. Mutations in p-tubulin map to domains involved in regulation of microtubule stability in epothilone-resistant cell lines. Molecular Cancer Therapeutics. 1: 3-10, 2001). HCT-15 human colon carcinoma and DLD-1 human colon carcinoma are obtained from American Tissue Culture Collection. The MX-1W carcinoma is a Wyeth variant orginally obtained as MX-1 breast carcinoma from the National Cancer Institute. Cell lines selected for resistance to Representative Example 129. KB-3-1 cells are selected for resistance to Example 129 by chronically exposing cells to increasing concentrations of Example 129.
2.2. Cell Survival Assay: Standard Pharmacological Test Procedure. The concentration of candidate inhibitor required to inhibit 50% of cell growth (IC50) is done according to previously reported methods. […] Compounds are serially diluted into media as 2× stocks and 100 μl added to cells in duplicate. Compounds are incubated with cells for 3 days. At the end of the incubation period the sulforhodamine B (SRB) assay, which measures protein content as an assessment of cell survival, is performed as described previously (Skehan P, Storeng R, Scudiero D, Monks A, McMahon J, Vistica D, Warren J T, Bokesch H, Kenney S, Boyd MR. New calorimetric cytotoxicity assay for anticancer-drug screening. J Natl Cancer Inst 1990 Jul 4;82(13):1107-12) with some modification as follows. For KB-3-1 cells with 20% FCS, media is gently decanted and replaced with 200 μl of serum-free media mixed with cold 50% TCA for a final concentration of 10% TCA. The plates are incubated for 1 hr at 4° C., followed by washing 5 times in cold distilled water, then air dried overnight. The fixed cells are stained for 10 min with 80 μl of 0.04% SRB solution prepared in 1% glacial acetic acid. Stain is discarded and plates washed 5 times in 1% glacial acetic acid, then air-dried until completely dry. Stained cell product is dissolved in 150 μl of 10 mM Trizma Base and placed on a shaker for 20 minutes until fully dissolved. Absorbance is read on a Victor V multi-label plate reader (Perkin Elmer, Gaithersburg, Md.).

Test [2] concerns KB-8-5 (MDR1+). Kind of test: Cell survival assay (SRB), KB-8-5 (MDR1+). The note with it: for IC50: Homo sapiens.
In test [3] the test system is KB-V1 (MDR1++). Kind of test: Cell survival assay (SRB), KB-V1 (MDR1++). The note with it: for IC50: Homo sapiens.
Where [4] appears, read: Homo sapiens, KB 3-1, KB-3-1 cells (paclitaxel-sensitive parent), read-out: In vitro IC50 (nM) KB-3-1.
Setting [5] is: MDR1, read-out: In vitro IC50 (nM) KB85.
[6] abbreviates: read-out: In vitro IC50 (nM) KBV1.

As to `CCOC(=O)/C(C)=C/[C@H](C(C)C)N(C)C(=O)[C@@H](NC(=O)[C@@H](NC)C(C)(C)c1ccccc1)C(C)(C)SC` [Example 79, Ethyl (E,4S)-2,5-dimethyl-4-{methyl[(2R)-3-methyl-2-{[(2S)-3-methyl-2-(methylamino)-3-phenylbutanoyl]amino}-3-(methylsulfanyl)butanoyl]amino}-2-hexenoate], the IC50 in test [1] (setting [4]) was 449 nM; in test [2] (setting [5]), 1420 nM; in test [3] (setting [6]), 2440 nM. Moreover, in test [2], the “Ratio KB85/KB” value is listed as 3.2. For the same molecule, the “Ratio KBV1/KB” value in test [3] was 5.4.

In the case of `C/C(=C\[C@H](C(C)C)N(C)C(=O)[C@@H](NC(=O)[C@@H](N1CCCC1)C(C)(C)c1ccccc1)C(C)(C)C)C(=O)O` [Example 152, (2E,4S)-2,5-dimethyl-4-(methyl{3-methyl-N-[(2S)-3-methyl-3-phenyl-2-pyrrolidin-1-ylbutanoyl]-L-valyl}amino)hex-2-enoic Acid], the IC50 in test [1] (setting [4]) is 75 nM; in test [2] (setting [5]), 158 nM; in test [3] (setting [6]), more than 3000 nM. For the same molecule, the “Ratio KB85/KB” value in test [2] came out at 2.1. Further, the “Ratio KBV1/KB” value in test [3] was found to be 40.

As to `CCOC(=O)/C(C)=C/[C@H](C(C)C)N(C)C(=O)[C@@H](NC(=O)[C@@H](NC)C(C)(C)c1ccc(OC)cc1OC)C(C)(C)C` [Example 58, 2-Methoxy-N,O,β,β,tetramethyl-L-tyrosyl-N^1-[(1S,2E)-4-ethoxy-1-isopropyl-3-methyl-4-oxo-2-butenyl]-N^1,3-dimethyl-L-valinamide], the figures for the concentration for half-maximal inhibition (IC50) in test [1] (setting [4]), in test [2] (setting [5]) and in test [3] (setting [6]) were 144 nM, 1700 nM and not below 3000 nM, respectively. In addition, the “Ratio KB85/KB” value in test [2] is reported as 11.7. Moreover, the “Ratio KBV1/KB” value in test [3] is 20.8.

For the molecule `COc1ccc(C[C@H]2NC(=O)/C=C/C[C@@H]([C@H](C)[C@H]3O[C@@H]3c3ccccc3)OC(=O)[C@H](CC(C)C)OC(=O)[C@H](C)CNC2=O)cc1Cl` [Cryptophycin-1], the IC50 in test [1] (KB-3-1 parental, Table 8, read-out: KB-3-1 IC50) amounted to 0.0064 ± 0.0045 nM.

In the case of `CN[C@H](C(=O)N[C@H](C(=O)N(C)[C@H](/C=C(\C)C(=O)O)C(C)C)C(C)(C)C)C(C)(C)c1cccc(F)c1` [Example 60, 3-Fluoro-N,β,β-trimethyl-L-phenylalanyl-N^1-[(1S,2E)-3-carboxy-1-isopropyl-2-butenyl]-N^1,3-dimethyl-L-valinamide], the 50% inhibitory concentration (IC50) in test [1] (setting [4]) amounted to 0.997 nM; in test [2] (setting [5]), 1.8 nM; in test [3] (setting [6]), 77 nM. Moreover, the “Ratio KB85/KB” value in test [2] amounted to 1.8. In test [3], the “Ratio KBV1/KB” value is on record as 77.4.

`CN[C@@H](C(=O)N[C@H](C(=O)N(C)[C@H](/C=C(\C)C(=O)O)C(C)C)C(C)(C)C)C(C)(C)c1cccs1` [Example 21, N-Methyl-3-(2-thienyl)-D-valyl-N^1-[(1S,2E)-3-carboxy-1-isopropyl-2-butenyl]-N^1,3-dimethyl-L-valinamide]: the IC50 in test [1] (setting [4]) came to 10.2 nM; in test [2] (setting [5]), 18.2 nM; in test [3] (setting [6]), 758 nM. Also, in test [2], the “Ratio KB85/KB” value is 1.8. Also, in test [3], the “Ratio KBV1/KB” value was found to be 74.4.

For the molecule `CN[C@H](C(=O)N[C@H](C(=O)N(C)[C@H](/C=C(\C)C(=O)O)C(C)C)C(C)(C)C)C1(c2ccccc2)CCCC1` [Example 71, (2E,4S)-2,5-dimethyl-4-(methyl{3-methyl-N-[(2S)-2-(methylamino)-2-(1-phenylcyclopentyl)ethanoyl]-L-valyl}amino)-2-hexenoic acid], the IC50 is 141 nM in test [1] (setting [4]), 186 nM in test [2] (setting [5]) and not below 3000 nM in test [3] (setting [6]). Moreover, the “Ratio KB85/KB” value in test [2] worked out at 1.3. In test [3], the “Ratio KBV1/KB” value came to 21.2.

As to `CCOC(=O)/C(C)=C/[C@H](C(C)C)N(C)C(=O)[C@@H](NC(=O)[C@H](NC)C(C)(C)c1ccc(C)cc1)C(C)(C)C` [Example 10b, N,β,β,4-tetramethyl-D-phenylalanyl-N^1-[(1S,2E)-4-ethoxy-1-isopropyl-3-methyl-4-oxo-2-butenyl]-N^1,3-dimethyl-L-valinamide], the values for the IC50 in test [1] (setting [4]), in test [2] (setting [5]) and in test [3] (setting [6]) were 447 nM, 1740 nM and not below 3000 nM, respectively. Besides, the “Ratio KB85/KB” value in test [2] amounted to 3.9. The “Ratio KBV1/KB” value in test [3] stood at 6.7.

Regarding `CN[C@H](C(=O)N[C@H](C(=O)N(C)[C@H](/C=C(\C)C(=O)O)C(C)C)C(C)(C)C)C(C)(C)c1ccc(C(=O)c2ccccc2)cc1` [Example 91, 4-benzoyl-N,β,β-trimethyl-L-phenylalanyl-N^1-[(1S,2E)-3-carboxy-1-isopropylbut-2-enyl]-N^1,3-dimethyl-L-valinamide], the values for the IC50 in test [1] (setting [4]), in test [2] (setting [5]) and in test [3] (setting [6]) were 1.7 nM, 6.8 nM and 525 nM, respectively. The “Ratio KB85/KB” value in test [2] turned out to be 4.0. Further, the “Ratio KBV1/KB” value in test [3] came to 308.7.

In the case of `CCN[C@H](C(=O)N[C@H](C(=O)N(C)[C@H](/C=C(\C)C(=O)O)C(C)C)C(C)(C)C)C(C)(C)c1ccccc1` [Example 32, N-Ethyl-β,β-dimethylphenylalanyl-N^1-[(1S,2E)-3-carboxy-1-isopropyl-2-butenyl]-N^1,3-dimethyl-L-valinamide], the “Ratio KB85/KB” value in test [2] came out at 2.6. In test [3], the “Ratio KBV1/KB” value is 64.5.

In the case of `CN[C@H](C(=O)N[C@H](C(=O)N(C)[C@H](/C=C(\C)C(=O)O)C(C)C)[C@H](C)OC)C(C)(C)c1ccccc1` [Example 88, N,β,β-trimethyl-L-phenylalanyl-N^1-[(1S,2E)-3-carboxy-1-isopropyl-2-butenyl]-N^1,O-dimethyl-L-allothreoninamide], the results for the IC50 in test [1] (setting [4]), in test [2] (setting [5]) and in test [3] (setting [6]) were 871 nM, 1740 nM and not below 3000 nM, respectively. Also, in test [2], the “Ratio KB85/KB” value is listed as 2.0. In test [3], the “Ratio KBV1/KB” value is listed as 3.4.

On to `CCOC(=O)/C(C)=C/C(C(C)C)N(C)C(=O)[C@@H](NC(=O)[C@@H](NC)C(C)(C)c1ccccc1)[C@H](C)O` (stereo in doubt) [Example 85, N,β,β-trimethyl-L-phenylalanyl-N^1-[(1R,2E)-4-ethoxy-1-isopropyl-3-methyl-4-oxo-2-butenyl]-N^1-methyl-L-allothreoninamide], for which the IC50 is 115 nM in test [1] (setting [4]), 1330 nM in test [2] (setting [5]) and not below 3000 nM in test [3] (setting [6]). Further, the “Ratio KB85/KB” value in test [2] came to 11.5. The “Ratio KBV1/KB” value in test [3] was found to be 26.0.

`COc1cc2c(c(OC)c1OC)-c1ccc(OC)c(=O)cc1[C@@H](NC(C)=O)CC2` [colchicine, reference compound]: the “resistance of KB-8-5 cells” value in test [2] came to 9.8 fold. Also, the IC50 in test [2] (MDR1, read-out: KB-8-5 (MDR1+) IC50, nM (N)) stood at 62.7 nM; in test [3] (read-out: KB-V1 (MDR1++) IC50, nM (N)), 2440 nM.

As for `CCN[C@H](C(=O)N[C@H](C(=O)N(C)[C@H](/C=C(\C)C(=O)O)C(C)C)C(C)(C)C)C(C)(C)c1ccccc1` [Example 151, N-ethyl-β,β-dimethyl-L-phenylalanyl-N^1-[(1S,2E)-3-carboxy-1-isopropylbut-2-enyl]-N^1,3-dimethyl-L-valinamide], in test [2], the “Ratio KB85/KB” value was 1.5. For the same molecule, in test [3], the “Ratio KBV1/KB” value is 11.3.

For the molecule `CN[C@H](C(=O)N[C@H](C(=O)N(C)[C@H](/C=C(\C)C(=O)NC(CCSC)C(=O)OC)C(C)C)C(C)(C)C)C(C)(C)c1ccccc1` (stereo partly drawn) [Example 144, 2-(4-{[3,3-Dimethyl-2-(3-methyl-2-methylamino-3-phenyl-butyrylamino)-butyryl]-methyl-amino}-2,5-dimethyl-hex-2-enoylamino)-4-methylsulfanyl-butyric Acid Methyl], in test [2], the “Ratio KB85/KB” value came to 14.9. For the same molecule, the IC50 in test [2] (setting [5]) was 55 nM.

One may read the IC50 as the concentration that gives 50% inhibition.
